This note sets out measurements from publication PMC10459814.

Series [1] relates to CT26 murine colon carcinoma cells. Description: In vivo antitumor efficacy and safety in CT26 tumor-bearing BALB/c mice. As to conditions: for tumor weight reduction / relative tumor volume growth rate (T/C): CT26 tumor-bearing BALB/c mice; for tumor weight reduction: 21 days. The source says:
Given its promising in vitro enzymatic potencies, compound NK3 was further evaluated for antitumor efficacy in vivo with a model by injecting immunocompetent BALB/c mice with CT26 murine colon carcinoma cells (Figure 5). CT26 cells, derived from the epithelial glands of BALB/C mice with colon cancer, are commonly employed as a model for investigating immunotherapies and studying host immune responses. […] Dose-dependent growth-inhibitory potency of NK3 was observed (Figure 5B).
Figure 5 In vivo antitumor activity of compound NK3 in CT26 tumor-bearing mice. […] (B) Tumor weight of the excised tumors of each group. (C) Tumor volume of the mice in each group during the observation period. (D) Body weight of the mice from each group at the end of the observation period. Body weight change of each group of mice. The data were presented as the mean ± SD. p < 0.05 (versus the vehicle control group). The antitumor assay in CT26 tumor-bearing mice was carried out in one experiment with previous work.
Pathological analysis of tissue sections from major organs (heart, liver, lung, spleen, and kidney) of CT26 tumor-bearing mice. Hematoxylin and eosin (H&E) were used to stain the organs with representative images captured. The H&E staining of CT26 tumor-bearing mice was carried out in one experiment with previous work.

For series [2], the system named is HepG2. Description: MTT cytotoxicity assay, HepG2. Format: cell-based. As to conditions: Homo sapiens, mean ± SD. The method, then: (§1) The cytotoxic activity of these three compounds was evaluated against HepG2, Hct-116, and SKOV3 cancer cells by MTT assay, using doxorubicin (DOX) as the positive control.
(In general: Tetrazolium dyes change colour on reduction, which living cells bring about.)

The test system of series [3] is Hct-116. Description: MTT cytotoxicity assay, Hct-116. The format is cell-based. The settings on record: Homo sapiens, mean ± SD. The method, then:
as §1

Series [4] relates to SKOV3. The series can be described thus: MTT cytotoxicity assay, SKOV3. Format: cell-based. As to conditions: Homo sapiens, SK-OV-3, mean ± SD. The method, then:
as §1

Series [5] deals with T1, human IDO1 (Homo sapiens, UniProt P14902). The series can be described thus: IDO1 standard enzymatic inhibition assay.
The target of series [6] is recombinant STAT3 (Homo sapiens, UniProt P40763). Description: SPR binding assay (BIAcore) with STAT3. As to conditions: recombinant STAT3, 0.078-10.0 μM, read-out: KD (equilibrium dissociation constant) with STAT3. The procedure: In order to further investigate the direct interaction between NK3 and STAT3, we conducted an SPR binding assay.
Figure 8 The binding affinity of NK3 with recombinant STAT3 determined by the SPR assay. Concentration from top to bottom: 0.078 μM, 0.156 μM, 0.313 μM, 0.625 μM, 1.25 μM, 2.5 μM, 5.0 μM, and 10.0 μM.

For series [7], the target named is T1, human IDO1. The series can be described thus: SPR binding assay (Biacore T200) with IDO1. As to conditions: immobilized recombinant IDO1, 0.078-10.0 μM, read-out: KD (equilibrium dissociation constant) with IDO1. The method, then:
A surface plasmon resonance (SPR)-based binding assay was conducted to validate the direct interaction between NK3 and IDO1 protein using a Biacore T200 optical biosensor. This analytical method is valuable for determining the kinetic and thermodynamic parameters of ligand–protein complex formation and is widely employed in the study of enzyme–enzyme/inhibitor interactions. The binding affinity between compound NK3 and IDO1 was assessed utilizing Biacore analysis software, accompanied by measurements of kinetic association and dissociation. As depicted in Figure 3, compound NK3 efficiently interacted with the immobilized protein to induce a concentration-dependent response for association or dissociation, respectively. […] The binding assays confirmed the direct binding of compound NK3 to IDO1 protein.
Figure 3 The binding affinity of NK3 with recombinant IDO1 determined by the SPR assay. Concentration from top to bottom: 0.078 μM, 0.156 μM, 0.313 μM, 0.625 μM, 1.25 μM, 2.5 μM, 5.0 μM, and 10.0 μM.
A general note: SPR reads the build-up and loss of mass on a sensor chip optically.

For series [8], the system named is STAT3 nuclear translocation. Description: Immunofluorescence staining of IL-6-induced STAT3 nuclear translocation in HepG2 cells. The format is cell-based, human. The settings on record: 2 μM, IL-6 stimulation 30 min. The procedure: The central role of nuclear translocation in the functioning of transcription factors is evident. The activation of STAT3 transcription is reliant on its nuclear translocation and subsequent binding to target DNA [43], so we further investigated the inhibitory effect of NK3 on preventing STAT3 from translocating to the nucleus by immunofluorescence staining. To this end, HepG2 cells were treated with 2 μM NK3 for […], and then IL-6 was added to stimulate STAT3 translocation for 30 min.
Figure 9 NK3 inhibited the nuclear translocation of STAT3. […] Cells were treated with 2 μM NK3 for 12 h with or without pre-treatment with 50 ng/mL of IL-6 for 30 min. Then, cells were fixed and stained with anti-p-STAT3 and DAPI before being subjected to Zeiss LSM700 Confocal Microscope for analysis.

The test system of series [9] is human liver cancer HepG2 cells xenograft. The series can be described thus: In vivo antitumor efficacy in nude mice bearing HepG2 xenograft. As to conditions: for tumor growth inhibition (tumor weight): 21 days. The source says:
In order to ascertain the viability of IDO1 as an alternative target for compound NK3, a xenograft model was established by inoculating nude mice with human liver cancer HepG2 cells, subsequent to two injections of two doses of NK3 administered at three-day intervals. […] The antitumor effect of NK3 was also reflected in a delayed increase in xenograft volume (Figure 7C).
Figure 7 In vivo antitumor activity of compound NK3 in nude mice bearing HepG2 xenograft model. (A) The images of the harvested tumors from the mice after administration with NK3 (10 and 20 mg/kg) and the positive control doxorubicin (DOX) (5 mg/kg) every 3 days for 3 weeks. (B) Tumor weight of the excised tumors of each group. (C) Tumor volume of the mice in each group during the observation period. (D) Body weight of the mice from each group at the end of the observation period. Body weight change of each group of mice. The data were presented as the mean ± SD. p < 0.05 (versus the vehicle control group). The antitumor assay in nude mice was carried out in one experiment with previous work. TEXT PRINTED IN THE PICTURE: (B) Dox: 53.0% (5 mg/kg) | (B) NK-3: 61.1% (10 mg/kg); 64.4% (20 mg/kg) DOUBTS OF THE COPYIST ABOUT THIS PICTURE: Panel B: the picture prints no measure for the percentages over the bars (53.0%, 61.1%, 64.4%). The axis reads only 'Tumor weight (g)', so they are copied without a measure.

A value given as a limit tells only on which side of the number the result lay.

Broadly, the IC50 is the midpoint of a concentration-inhibition curve. High values mean weaker potency, low ones greater potency. The term melting point denotes the temperature of the solid-liquid transition. By Kd is commonly meant a measure of binding affinity in units of concentration.

T1 sequence (P14902 whole entry): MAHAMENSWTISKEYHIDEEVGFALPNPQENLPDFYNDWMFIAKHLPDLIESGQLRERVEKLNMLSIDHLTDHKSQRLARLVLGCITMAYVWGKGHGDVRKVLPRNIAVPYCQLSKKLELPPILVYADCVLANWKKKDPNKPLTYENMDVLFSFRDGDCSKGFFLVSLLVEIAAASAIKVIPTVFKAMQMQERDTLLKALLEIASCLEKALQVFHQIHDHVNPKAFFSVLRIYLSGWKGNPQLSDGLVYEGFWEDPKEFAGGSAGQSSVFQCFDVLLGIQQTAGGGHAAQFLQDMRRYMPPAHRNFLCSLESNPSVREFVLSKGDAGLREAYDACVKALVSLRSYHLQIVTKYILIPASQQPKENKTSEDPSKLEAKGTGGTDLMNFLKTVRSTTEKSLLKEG
Chain of recombinant STAT3 (P40763 whole entry, species assumed): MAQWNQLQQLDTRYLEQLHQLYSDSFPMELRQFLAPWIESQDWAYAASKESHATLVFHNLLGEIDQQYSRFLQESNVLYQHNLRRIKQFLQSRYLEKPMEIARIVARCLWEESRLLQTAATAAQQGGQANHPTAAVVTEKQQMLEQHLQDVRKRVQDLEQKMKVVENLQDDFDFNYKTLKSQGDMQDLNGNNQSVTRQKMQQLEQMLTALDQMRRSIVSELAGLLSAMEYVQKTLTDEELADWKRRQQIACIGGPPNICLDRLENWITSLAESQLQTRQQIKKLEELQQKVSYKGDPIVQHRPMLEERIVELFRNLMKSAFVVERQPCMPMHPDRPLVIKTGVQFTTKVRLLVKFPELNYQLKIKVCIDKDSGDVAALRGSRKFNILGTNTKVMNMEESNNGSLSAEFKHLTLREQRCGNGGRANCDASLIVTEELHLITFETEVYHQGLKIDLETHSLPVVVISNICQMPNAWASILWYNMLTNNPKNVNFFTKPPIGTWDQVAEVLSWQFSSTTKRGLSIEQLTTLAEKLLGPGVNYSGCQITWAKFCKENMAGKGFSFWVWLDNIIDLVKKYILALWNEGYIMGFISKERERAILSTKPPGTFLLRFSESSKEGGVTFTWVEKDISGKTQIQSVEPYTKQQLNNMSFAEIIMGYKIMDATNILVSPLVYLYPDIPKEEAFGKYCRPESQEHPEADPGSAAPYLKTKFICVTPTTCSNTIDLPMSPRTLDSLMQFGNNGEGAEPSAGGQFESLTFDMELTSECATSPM

In the case of `Cn1cc(C[C@H](N)C(=O)O)c2ccccc21` [Compound 1-MT, 1-methyl-L-tryptophan, reference compound], the tumor weight reduction in [1] (100 mg/kg intraperitoneal) was determined as 45.6%.
As for `COc1cccc2c1C(=O)c1c(O)c3c(c(O)c1C2=O)C[C@@](O)(C(=O)CO)C[C@@H]3O[C@H]1C[C@H](N)[C@H](O)[C@H](C)O1` [DOX, doxorubicin, reference compound], the figures for the IC50 in [2], in [3] and in series [4] were 0.28 ± 0.03 µM, 0.37 ± 0.02 µM and 0.58 ± 0.28 µM, respectively.
Regarding `Nc1nonc1C(=NO)Nc1ccc(F)c(Cl)c1` [IDO5L, reference compound], the IC50 in series [2], in [3] and in series [4] was over 40 µM each time. In series [1] (100 mg/kg intraperitoneal), this molecule showed a tumor weight reduction of 70.9%.
Consider `CCCCC(CC)CNC(=O)C(Cc1ccccc1)NC1=C/C(=N/O)c2ccccc2C1=O` (stereo not shown) [NK1, (Z)-N-(2-ethylhexyl)-2-((4-(hydroxyimino)-1-oxo-1,4-dihydronaphthalen-2-yl)amino)-3-phenylpropanamide], for which the melting point was in the range of 120.3 to 121.8 °C. Further, inhibition in series [2] was half-maximal at 1.28 ± 0.27 µM (IC50). In series [3], this molecule returned an IC50 of 0.49 ± 0.14 µM. This molecule also registered an IC50 in series [5] of 3450 nM. The IC50 in series [4] stood at 0.95 ± 0.18 µM.
On the same counts, the results for `O=C1C(NC(Cc2ccccc2)C(=O)NCCc2ccccc2)=C/C(=N/O)c2ccccc21` (stereo not shown) [NK2, (Z)-2-((4-(hydroxyimino)-1-oxo-1,4-dihydronaphthalen-2-yl)amino)-N-phenethyl-3-phenylpropanamide] are 197.2 to 198.6 °C, 5.08 ± 0.33 µM, 5.84 ± 1.34 µM, 8220 nM and 4.25 ± 1.65 µM.
As for `CCCNC(=O)C(Cc1ccccc1)NC1=C/C(=N/O)c2ccccc2C1=O` (stereo not shown) [NK3, (Z)-2-((4-(hydroxyimino)-1-oxo-1,4-dihydronaphthalen-2-yl)amino)-3-phenyl-N-propylpropanamide], the IC50 in [2] amounted to 0.16 ± 0.04 µM; in series [3], 0.18 ± 0.04 µM; in [5], 60 nM; in series [4], 0.48 ± 0.23 µM. Further, the “relative tumor volume growth rate (T/C)” value in [1] (50 mg/kg) was 56.00%; in [1] (100 mg/kg), 29.07%. For the same molecule, the tumor weight reduction in [1] (50 mg/kg intraperitoneal) is given as 42.8%; in series [1] (100 mg/kg intraperitoneal), 65.8%. The “pathology (H&E) of heart, liver, spleen, lung, kidney” value in series [1] (CT26 tumor-bearing mice) is “no obvious morphological and pathological changes”. Also, the “body weight change versus vehicle” value in [1] (CT26 tumor-bearing mice, 21 days of treatment) was “no significant change in body weight”. Also, the values for the Kd in [6] and in [7] were 170 nM and 160 nM, respectively. Further, in series [8], the STAT3 nuclear translocation entry is given as “significantly inhibited”. Further, the “tumor growth inhibition (tumor weight)” value is 61.1% in series [9] (10 mg/kg intravenous every 3 days) and 64.4% in series [9] (20 mg/kg intravenous every 3 days). Further, in series [9] (compared to DOX), the “body weight / tolerability” value is given as “did not cause significant weight loss”.
